# Literature values as cited in PubChem BioAssay AID1259409 (Chemical Carcinogenesis Research Information System (CCRIS), 2018).
# Tested on: rodent chemically induced tumor inhibition, incidence and multiplicity
# Experiment: CCRIS tumor inhibitor studies
smiles,measurement,setting,value
CC1=C(/C=C/C(C)=C/C=C/C(C)=C/C=C/C=C(C)/C=C/C=C(C)/C=C/C2=C(C)CCCC2(C)C)C(C)(C)CCC1,"tumour outcome (control, treated, inhibition, significance)","Carcinogen: 7,12-DIMETHYLBENZ[A]ANTHRACENE, 57-97-6, Dose [Inhibitor]: 0, 400 NMOL IN 200 µL ACETONE 2/WK BEGINNING 1 WK POST CARCINOGEN DOSE APPLIED SIMULTANEOUSLY WITH PROMOTER FOR 20 WK (S, Route [Inhibitor]: DERMAL, Species: MOUSE, Strain/Sex: ICR/?, Target Tissue: Type of Lesion: SKIN: PAPILLOMA, Dose [Carcinogen]: 100 UG ONCE, Promoter: 12-O-TETRADECANOYLPHORBOL-13-ACETATE, 16561-29-8","69%, 25%, 64%, not calculated"
same,"tumour outcome (control, treated, inhibition, significance)","Carcinogen: 7,12-DIMETHYLBENZ[A]ANTHRACENE, 57-97-6, Dose [Inhibitor]: 0, 1430 IU/KG IN 100 µL PEANUT OIL 5 D/WK BEGINNING 1 WK POST CARCINOGEN DOSE AND CONTINUING FOR DURATION OF STUDY (STUD, Route [Inhibitor]: GAVAGE, Species: MOUSE, Strain/Sex: HRA/SKH/FEMALE, Target Tissue: Type of Lesion: SKIN: CARCINOMA, Dose [Carcinogen]: 10 NMOL IN 50 µL ACETONE ONCE","7/25 (28%), 8/37 (22%), 21%, not calculated"
same,outcome,"Carcinogen: 7,12-DIMETHYLBENZ[A]ANTHRACENE, 57-97-6, Dose [Inhibitor]: 0, 1430 IU/KG IN 100 µL PEANUT OIL 5 D/WK BEGINNING 1 WK POST CARCINOGEN DOSE AND CONTINUING FOR DURATION OF STUDY (STUD, Route [Inhibitor]: GAVAGE, Species: MOUSE, Strain/Sex: HRA/SKH/FEMALE, Target Tissue: Type of Lesion: SKIN: PAPILLOMA, Dose [Carcinogen]: 10 NMOL IN 50 µL ACETONE ONCE","97%, 77%, 21%, not calculated at 20 wk; 68%, 52%, 24%, not calculated at 40 wk"
same,"tumour outcome (control, treated, inhibition, significance)","Carcinogen: 7,12-DIMETHYLBENZ[A]ANTHRACENE, 57-97-6, Dose [Inhibitor]: 140 UG (1.5 MG/KG BW) IN 0.4 ML MINERAL OIL 3/WK FOR 28 WK (STUDY DURATION: 28 WK), Route [Inhibitor]: ORAL, Species: HAMSTER, Strain/Sex: SYRIAN/MALE, Target Tissue: Type of Lesion: SKIN: CARCINOMA, Dose [Carcinogen]: 0.1% IN HEAVY MINERAL OIL APPLIED TO BUCCAL POUCH 3/WK FOR 28 WK, Promoter: NONE USED","20/20 (100%), 11/20 (55%), 45%, not calculated"
same,"tumour outcome (control, treated, inhibition, significance)","Carcinogen: 7,12-DIMETHYLBENZ[A]ANTHRACENE, 57-97-6, Dose [Inhibitor]: 250 MG/KG IN DIET BEGINNING 6 WK PRIOR TO CARCINOGEN DOSE AND CONTINUING FOR 21-22 WK POST CARCINOGEN DOSE (STUDY DURATI, Route [Inhibitor]: ORAL, Species: RAT, Strain/Sex: SPRAGUE-DAWLEY/MALE, Target Tissue: Type of Lesion: SALIVARY GLAND: TUMOR, Dose [Carcinogen]: 1 MG IN 20 µL OLIVE OIL INJECTED INTO SUBMANDIBULAR GLAND ONCE, Promoter: NONE USED","20/28 (71%), 20/30 (67%), 6%, not significant"
same,"tumour outcome (control, treated, inhibition, significance)","Carcinogen: BENZO[A]PYRENE, 50-32-8, Dose [Inhibitor]: 0, 0.5 G/G OF DIET FOR 6 WK (STUDY DURATION: 9 WK), Route [Inhibitor]: ORAL, Species: MOUSE, Strain/Sex: NIGP(S)/FEMALE, Target Tissue: Type of Lesion: LUNG: ADENOMA, Dose [Carcinogen]: 0.5 MG INJECTED IN THE SCAPULAR REGION OF NEWBORN MICE ONCE, Promoter: NONE USED","56%, 38%, 32%, not calculated"
same,"tumour outcome (control, treated, inhibition, significance)","Carcinogen: BENZO[A]PYRENE, 50-32-8, Dose [Inhibitor]: 0, 0.5 G/G OF DIET FOR 6 WK (STUDY DURATION: 9 WK), Route [Inhibitor]: ORAL, Species: MOUSE, Strain/Sex: NIGP(S)/MALE, Target Tissue: Type of Lesion: LUNG: ADENOMA, Dose [Carcinogen]: 0.5 MG INJECTED IN THE SCAPULAR REGION OF NEWBORN MICE ONCE, Promoter: NONE USED","37%, 38%, -3%, not calculated"
same,"tumour outcome (control, treated, inhibition, significance)","Carcinogen: BENZO[A]PYRENE, 50-32-8, Dose [Inhibitor]: 0, 4.7 MICROMOLAR/D IN 0.1 ML PEANUT OIL BEGINNING 2 WK PRIOR TO CARCINOGEN TREATMENT AND CONTINUING TO 2 WK POST CARCIN, Route [Inhibitor]: GAVAGE, Species: MOUSE, Strain/Sex: SWISS/FEMALE, Target Tissue: Type of Lesion: FORESTOMACH: TUMOR, Dose [Carcinogen]: 1 MG 2/WK IN 0.1 ML PEANUT OIL FOR 4 WK, Promoter: NONE USED","20/20 (100%), 3/20 (15%), 85%, p<0.001"
same,"tumour outcome (control, treated, inhibition, significance)","Carcinogen: BENZO[A]PYRENE, 50-32-8, Dose [Inhibitor]: 2.5 MG/D IN DIET FOLLOWED 1 MO LATER BY 25 MG/0.250 KG BW BY GAVAGE 2/WK 2 HR PRIOR TO CARCINOGEN DOSE (STUDY DURATION:, Route [Inhibitor]: ORAL, GAVAGE, Species: MOUSE, Strain/Sex: SWISS/FEMALE, Target Tissue: Type of Lesion: SKIN: PAPILLOMA, SQUAMOUS EPITHELIOMA, Dose [Carcinogen]: 100 UG IN ACETONE 2/WK BEGINNING 1 MO AFTER AGENT DOSE AND CONTINUING FOR DURATION OF STUDY, Promoter: NONE USED","@65%, @55%, 15%, p<0.05"
same,"tumour outcome (control, treated, inhibition, significance)","Carcinogen: BENZO[A]PYRENE, 50-32-8, UV IRRADIATION, Carcinogen: BENZO[A]PYRENE, 50-32-8, UV IRRADIATION, Dose [Inhibitor]: 2.5 MG/D IN DIET FOLLOWED 1 MO LATER BY 25 MG/0.250 KG BW BY GAVAGE 2/WK GIVEN 2 HR PRIOR TO CARCINOGEN DOSE (STUDY DURA, Route [Inhibitor]: ORAL, GAVAGE, Species: MOUSE, Strain/Sex: SWISS/FEMALE, Target Tissue: Type of Lesion: SKIN: PAPILLOMA, SQUAMOUS EPITHELIOMA, Dose [Carcinogen]: 100 UG IN ACETONE 2/WK BEGINNING 1 MO AFTER AGENT DOSE AND CONTINUING FOR DURATION OF STUDY PLUS UV IRRADIATION (5890 ER, Promoter: NONE USED","@93%, @40%, @57%, not calculated"
same,"tumour outcome (control, treated, inhibition, significance)","Carcinogen: DIESEL EXHAUST PARTICLES, Dose [Inhibitor]: 0, 0.02% IN BASAL DIET FOR DURATION FO STUDY (STUDY DURATION: 12 MO), Route [Inhibitor]: ORAL, Species: MOUSE, Strain/Sex: ICR/MALE, Target Tissue: Type of Lesion: LYMPHATIC SYSTEM: LYMPHOMA, Dose [Carcinogen]: 0.2 MG 1/WK FOR 10 WK, Promoter: NONE USED","6/29 (21%), 5/30 (17%), 20%, not calculated"
same,"tumour outcome (control, treated, inhibition, significance)","Carcinogen: DIESEL EXHAUST PARTICLES, Dose [Inhibitor]: 0, 0.02% IN BASAL DIET FOR DURATION OF STUDY (STUDY DURATION: 12 MO), Route [Inhibitor]: ORAL, Species: MOUSE, Strain/Sex: ICR/ MALE, Target Tissue: Type of Lesion: LYMPHATIC SYSTEM: LYMPHOMA, Dose [Carcinogen]: 0.1 MG 1/WK FOR 10 WK, Promoter: NONE USED","3/29 (10%), 2/30 (7%), 30%, not calculated"
same,"tumour outcome (control, treated, inhibition, significance)","Carcinogen: DIESEL EXHAUST PARTICLES, Dose [Inhibitor]: 0, 0.02% IN BASAL DIET FOR DURATION OF STUDY (STUDY DURATION: 12 MO), Route [Inhibitor]: ORAL, Species: MOUSE, Strain/Sex: ICR/MALE, Target Tissue: Type of Lesion: LUNG: TUMOR, Dose [Carcinogen]: 0.05 MG 1/WK FOR 10 WK, Promoter: NONE USED","9/30 (30%), 6/30 (20%), 33%, not calculated"
same,"tumour outcome (control, treated, inhibition, significance)","Carcinogen: DIESEL EXHAUST PARTICLES, Dose [Inhibitor]: 0, 0.02% IN BASAL DIET FOR DURATION OF STUDY (STUDY DURATION: 12 MO), Route [Inhibitor]: ORAL, Species: MOUSE, Strain/Sex: ICR/MALE, Target Tissue: Type of Lesion: LUNG: TUMOR, Dose [Carcinogen]: 0.1 MG 1/WK FOR 10 WK, Promoter: NONE USED","9/29 (31%), 10/30 (33%), -6%, not calculated"
same,"tumour outcome (control, treated, inhibition, significance)","Carcinogen: DIESEL EXHAUST PARTICLES, Dose [Inhibitor]: 0, 0.02% IN BASAL DIET FOR DURATION OF STUDY (STUDY DURATION: 12 MO), Route [Inhibitor]: ORAL, Species: MOUSE, Strain/Sex: ICR/MALE, Target Tissue: Type of Lesion: LUNG:TUMOR, Dose [Carcinogen]: 0.2 MG 1/WK FOR 10 WK, Promoter: NONE USED","7/29 (24%), 8/30 (27%), -13%, not calculated"
same,"tumour outcome (control, treated, inhibition, significance)","Carcinogen: DIESEL EXHAUST PARTICLES, Dose [Inhibitor]: 0, 0.02% IN BASAL DIET FOR DURATION OF STUDY (STUDY DURATION: 12 MO), Route [Inhibitor]: ORAL, Species: MOUSE, Strain/Sex: ICR/MALE, Target Tissue: Type of Lesion: LYMPHATIC SYSTEM: LYMPHOMA, Dose [Carcinogen]: 0.05 MG 1/WK FOR 10 WK, Promoter: NONE USED","3/30 (10%), 4/30 (13%), -30%, not calculated"
same,"tumour outcome (control, treated, inhibition, significance)","Carcinogen: DIESEL EXHAUST PARTICLES, Dose [Inhibitor]: 0, 0.02% IN HIGH FAT DIET FOR DURATION OF STUDY (STUDY DRUATION : 12 MO), Route [Inhibitor]: ORAL, Species: MOUSE, Strain/Sex: ICR/MALE, Target Tissue: Type of Lesion: LYMPHATIC SYSTEM: LYMPHOMA, Dose [Carcinogen]: 0.05 MG 1/WK FOR 10 WK, Promoter: NONE USED","5/30 (17%), 5/30 (17%), 0%, not significant"
same,"tumour outcome (control, treated, inhibition, significance)","Carcinogen: DIESEL EXHAUST PARTICLES, Dose [Inhibitor]: 0, 0.02% IN HIGH FAT DIET FOR DURATION OF STUDY (STUDY DURATION: 12 MO), Route [Inhibitor]: ORAL, Species: MOUSE, Strain/Sex: ICR/MALE, Target Tissue: Type of Lesion: LUNG: TUMOR, Dose [Carcinogen]: 0.05 MG 1/WK FOR 10 WK, Promoter: NONE USED","12/30 (40%), 9/30 (30%), 25%, not calculated"
